Seven compounds from patent EP0529395A2, “Benzamide multidrug resistance reversing agents” (Bristol-Myers Squibb Company, priority 1991, dated 1993) can be followed below.

Starred links: 1 amine or outer side, 2 acyl side, 3 side chain; linkers in the order of their positions; H or OH if unused. Positions of bridges follow the written chain, without caps; N, C: chain ends. Non-standard residues stand in square brackets, D forms with d. Residues, ends and D or L forms follow the SMILES beside them. Chains are numbered I, II in the order given. Actinocin(9to1) = Cc1c2oc3c(C)ccc(C(=O)[*:1])c3nc-2c(C(=O)[*:2])c(N)c1=O; NMeV = CN[C@H](C(=O)O)C(C)C; Sar = CNCC(=O)O

Format in all cases: cell-based, human
The test system of one test is MCF-7/ADR. As to the kind of experiment: Cytotoxic assay, MDR reversing effect with Adriamycin in resistant breast carcinoma cells. The method, then: (§1) Cell Culture: HCT116/VM46 cells were selected from human colon carcinoma HCT116 cell line for resistance to VM26 and MCF-7/ADR cells were selected from human breast carcinoma MCF-7 cell line for resistance to Adriamycin. […] The cell lines were grown in tissue culture flasks containing McCoy's 5A medium and 10% fetal bovine serum. Cells were maintained at 37°C in a humidified atmosphere containing 5% C02 and subcultured every 5 days.
(§2) Cytotoxic Assay: The cells were seeded in 96 well microtiter plates at 5x10^3 cells per well and allowed to grow for 24 hours at 37 °C. Cells were then incubated with decreasing amounts of antitumor agents: Adriamycin (100 µM, maximal concentration) or actinomycin D (17.6 ng/ml), for MCF-7 and HCT-116 cells, respectively. Chemosensitizers were added at variable concentrations ranging from 0.08 µM to […]. In parallel, verapamil was used as positive control at the same concentrations. After 48 hours of incubation, the cells were washed, fixed and stained with crystal violet. Absorbance was read by Molecular Devices' microtiter plate reader at the wavelength of 595nm. The IC50 value (50% inhibition of cell growth) was determined from relative survival rates resulted from two to three independent experiments. The term "fold resistance" was defined as the ratio of the IC50 for antitumor drug in the presence or absence of chemosensitizer in resistant cells divided by the IC50 for antitumor drug in its sensitive counterpart. This value provides an estimate of the apparent potency of each reversing agent in enhancing drug effect.

The test system of the next test is HCT116. As to the kind of experiment: Cytotoxic assay, actinomycin D in sensitive colon carcinoma cells. To be noted: no chemosensitizer. Here is the method:
as §1
as §2, with “The term "fold resistance" was defined as the ratio of the IC50 for antitumor drug in the presence or absence of chemosensitizer in resistant cells divided by the IC50 for antitumor drug in its sensitive counterpart. This value provides an estimate of the apparent potency of each reversing agent in enhancing drug effect.” left out

The next test deals with HCT-116/VM46. As to the kind of experiment: Cytotoxic assay, MDR reversing effect with actinomycin D in resistant colon carcinoma cells. Here is the method:
as §1, §2

[1] abbreviates: ActD IC50 in HCT-116/VM46 with chemosensitizer 0.4 μM divided by ActD IC50 in sensitive HCT116.
Setting [2] is: ADR IC50 in MCF-7/ADR with chemosensitizer 0.67 µM divided by ADR IC50 in sensitive MCF-7.

Usually IC50 stands for the concentration at which inhibition is half-maximal. Regarding `COc1cccc2c1C(=O)c1c(O)c3c(c(O)c1C2=O)C[C@@](O)(C(=O)CO)C[C@@H]3O[C@H]1C[C@H](N)[C@H](O)[C@H](C)O1` [ADR, Adriamycin], the concentration for half-maximal inhibition (IC50) in the test with MCF-7/ADR (Homo sapiens, NCI/ADR-RES, 48 h, MCF-7/ADR cells, no chemosensitizer) worked out at 50 µM. Further, the “Fold Resistance” value with MCF-7/ADR (MCF-7/ADR versus MCF-7, ADR, no chemosensitizer) stood at 138.9.
As for `Cc1c2oc3c(C)ccc(C(=O)N[C@@H]4C(=O)N[C@H](C(C)C)C(=O)N5CCC[C@H]5C(=O)N(C)CC(=O)N(C)[C@@H](C(C)C)C(=O)O[C@@H]4C)c3nc-2c(C(=O)N[C@@H]2C(=O)N[C@H](C(C)C)C(=O)N3CCC[C@H]3C(=O)N(C)CC(=O)N(C)[C@@H](C(C)C)C(=O)O[C@@H]2C)c(N)c1=O` [ActD, Actinomycin D] (I: T[dV]P[Sar][NMeV] / II: T[dV]P[Sar][NMeV]; ester I:1-I:C, II:1-II:C; linker I:N-II:N via Actinocin(9to1)), the “ActD IC50” value in the test on HCT116 is 0.5 ng/mL; with HCT-116/VM46 (HCT-116/VM46 cells, no chemosensitizer), 10 ng/mL. Moreover, the “Fold Resistance” value with HCT-116/VM46 (HCT-116/VM46 versus HCT116, ActD, no chemosensitizer) worked out at 20.0.
As to `CCN(CC)CCN(C(=O)c1cc(Cl)c(N)cc1Oc1ccc(C(F)(F)F)cc1[N+](=O)[O-])c1ccc(C(F)(F)F)cc1[N+](=O)[O-]` [Ia], the “Fold Resistance” value in the test with HCT-116/VM46 (setting [1]) is reported as 11.0.
Consider `CCN(CC)CCNC(=O)c1cc(Cl)c(N)cc1OCCCc1ccccc1` [Ic, 4-Amino-5-chloro-N-[2-(diethylamino)ethyl]-2-[3-(phenyl)pronoxy]benzamide], for which the “Fold Resistance” value in the test with HCT-116/VM46 (setting [1]) worked out at 9.8.
On to `C/C=C/C(=O)Nc1cc(OCCSc2ccccc2)c(C(=O)NCCN(CC)CC)cc1Cl` [If, 5-Chloro-4-crotonylamino-N-[2-(diethylamino)ethyl]-2-[2-(phenylthio)ethoxy]benzamide], for which the “Fold Resistance” value in the test on HCT-116/VM46 (setting [1]) is on record as 4.8; in the test with MCF-7/ADR (setting [2]) it was 28.6.
Consider `CCN(CC)CCN(C(=O)c1cc(Cl)c(N)cc1Oc1ccc([N+](=O)[O-])cc1)c1ccc([N+](=O)[O-])cc1` [Ii, 4-Amino-5-chloro-N-[2-(diethylamino)ethyl]-2-(4-nitrophenoxy)-N-(4-nitrophenyl)benzamide], for which the “Fold Resistance” value in the test with HCT-116/VM46 (setting [1]) was 9.8.
On to `COc1ccc(CCN(C)CCCC(C#N)(c2ccc(OC)c(OC)c2)C(C)C)cc1OC` (stereo not drawn) [Verapamil, verapamil], for which the entries for the “Fold Resistance” value with HCT-116/VM46 (setting [1]) and in the test on MCF-7/ADR (setting [2]) were 11.6 and 63.9, respectively.
